test system: Balb/c mice; experiment: Mouse Arthus; format: in vivo; conditions: delivered orally at 30 mg/kg, female Balb/c mice
Procedure: Mouse Arthus studies were conducted as reported in Braselmann S, Taylor V, Zhao H, Wang S, Sylvain C, Baluom M, Qu K, Herlaar E, Lau A, Young C, Wong B R, Lovell S, Sun T, Park G, Argade A, Jurcevic S, Pine P, Singh R, Grossbard E B, Payan D G, Masuda E S: R406 an orally available spleen tyrosine kinase inhibitor blocks fc receptor signaling and reduces immune-complex mediated inflammation. J Pharmacol Exp Ther, 2006, 319:998-1008.
In summary, female Balb/c mice (6-7 weeks on arrival) were habituated to the animal facility for at least 4 days. On the day of the experiment, animals were pre-treated (t=minus 1 h) with compound or vehicle alone by gavage (PO). At t=0, animals were injected intravenously (IV; 0.1 mL/mouse) with saline containing chicken ovalbumin and Evan's blue (10 mg/mL of each). Ten minutes later (t=10 min), animals were anesthesized with isoflurane, the dorsal surface was shaved and rabbit anti-chicken ovalbumin antibody was then injected intradermally at one site on the right side of the animal (25 μg in 30 μL). […]
The animals were then returned to their home cage and skin punches (8 mm) were collected from each injection site four hours later. […] The amount of Evan's blue in the formamide solution was then assessed by spectrophotometry (630 nm) as a measure of serum extravasation into the dermis.

| Structure (SMILES) | efficacy in mouse Arthus (Evan's blue serum extravasation into the dermis) |
| --- | --- |
| Cc1ncc(COc2cc(F)cc(Oc3ccc(-n4nc(C(C)C)c5ncnc(N)c54)cc3)c2)cn1 [Compound 10] | demonstrated efficacy |
| Cc1ncc(COc2cc(F)cc(Oc3ccc(-n4nc(C(C)C)c5ncnc(N)c54)cc3)c2)s1 [Compound 9] | demonstrated efficacy |

target: histidine tagged recombinant human full-length Bruton Agammaglobulinemia Tyrosine Kinase (Btk) (Homo sapiens (Human), UniProt Q06187); experiment: Btk Kinase Inhibition Assay (fluorescence polarization, KinEASE FP Fluorescein Green); format: biochemical; conditions: 10 μM ATP, 250 μM substrate, 60 minutes room temperature; Ki from IC50 by Cheng-Prusoff
Procedure: Kinase Binding Btk Kinase Inhibition Assay
Fluorescence polarization-based kinase assays were performed in 384 well-plate format using histidine tagged recombinant human full-length Bruton Agammaglobulinemia Tyrosine Kinase (Btk) and a modified protocol of the KinEASE™ FP Fluorescein Green Assay supplied from Millipore. Kinase reaction were performed at room temperature for 60 minutes in presence of 250 μM substrate, 10 μM ATP and variable test article concentrations. The reaction was stopped with EDTA/kinease detection reagents and the polarization measured on a Tecan 500 instrument. From the dose-response curve obtained, the IC50 was calculated using Graph Pad Prisms® using a non linear fit curve. The Km for ATP on each enzyme was experimentally determined and the Ki values calculated using the Cheng-Prusoff equation (see: Cheng Y, Prusoff W H. (1973) Relationship between the inhibition constant (K1) and the concentration of inhibitor which causes 50 percent inhibition (I50) of an enzymatic reaction”. Biochem Pharmacol 22 (23): 3099-108).

Chain of histidine tagged recombinant human full-length Bruton Agammaglobulinemia Tyrosine Kinase (Btk) (Q06187 whole entry): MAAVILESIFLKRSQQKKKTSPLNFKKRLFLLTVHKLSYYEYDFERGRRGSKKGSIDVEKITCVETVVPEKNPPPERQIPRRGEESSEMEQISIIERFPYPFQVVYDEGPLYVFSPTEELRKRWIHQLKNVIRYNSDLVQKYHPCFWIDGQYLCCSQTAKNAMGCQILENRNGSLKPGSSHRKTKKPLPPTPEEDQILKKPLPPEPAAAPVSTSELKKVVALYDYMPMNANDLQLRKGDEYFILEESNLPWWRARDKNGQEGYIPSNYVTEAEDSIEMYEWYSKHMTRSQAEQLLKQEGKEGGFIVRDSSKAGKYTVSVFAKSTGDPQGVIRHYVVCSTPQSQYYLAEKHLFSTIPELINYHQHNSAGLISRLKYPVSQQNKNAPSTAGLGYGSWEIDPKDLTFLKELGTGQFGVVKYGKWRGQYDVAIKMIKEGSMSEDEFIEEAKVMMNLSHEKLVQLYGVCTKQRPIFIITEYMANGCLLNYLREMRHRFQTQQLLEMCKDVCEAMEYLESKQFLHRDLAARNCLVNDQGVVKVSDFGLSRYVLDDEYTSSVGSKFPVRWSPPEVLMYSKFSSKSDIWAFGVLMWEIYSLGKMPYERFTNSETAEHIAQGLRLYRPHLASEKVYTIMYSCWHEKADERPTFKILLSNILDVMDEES

| Structure (SMILES) | Ki [nM] |
| --- | --- |
| Cc1ccc(COc2cc(F)cc(Oc3ccc(-n4nc(C5CCCC5)c5ncnc(N)c54)cc3)c2)cn1 [Compound 6] | < 100 |
| Cc1ccc(COc2cc(F)cc(Oc3ccc(-n4nc(C5CCOCC5)c5ncnc(N)c54)cc3)c2)cn1 [Compound 14] | < 100 |
| Cc1ccc(COc2cc(F)cc(Oc3ccc(-n4nc(C(C)C)c5ncnc(N)c54)cc3)c2)cn1 [Compound 11] | < 100 |
| Cn1cncc1COc1cc(F)cc(Oc2ccc(-n3nc(C4CCOCC4)c4ncnc(N)c43)cc2)c1 [Compound 4] | < 100 |
| CC(C)c1nn(-c2ccc(Oc3cc(F)cc(OCc4ccccc4)c3)cc2)c2c(N)ncnc12 [Compound 12] | < 100 |
| Cc1ncc(COc2cc(F)cc(Oc3ccc(-n4nc(C5CCCC5)c5ncnc(N)c54)cc3)c2)cn1 [Compound 8] | < 100 |
| Cc1ncc(COc2cc(F)cc(Oc3ccc(-n4nc(C5CCCC5)c5ncnc(N)c54)cc3)c2)s1 [Compound 7] | < 100 |
| Nc1ncnc2c(C3CCOCC3)nn(-c3ccc(Oc4cc(F)cc(OCc5ccccc5)c4)cc3)c12 [Compound 13] | < 100 |
| Cc1ncc(COc2cccc(Oc3ccc(-n4nc(C5CCCC5)c5ncnc(N)c54)cc3)c2)s1 [Compound 2] | < 100 |
| Nc1ncnc2c(C3CCCC3)nn(-c3ccc(Oc4cccc(OCc5cncs5)c4)cc3)c12 [Compound 1] | < 100 |
| Cc1ncc(COc2cc(F)cc(Oc3ccc(-n4nc(C5CCOCC5)c5ncnc(N)c54)cc3)c2)s1 [Compound 3] | < 100 |
| Cc1ncc(COc2cc(F)cc(Oc3ccc(-n4nc(C5CCOCC5)c5ncnc(N)c54)cc3)c2)cn1 [Compound 15] | < 100 |
| Cc1ncc(COc2cc(F)cc(Oc3ccc(-n4nc(C5CCOCC5)c5ncnc(N)c54)cc3)c2)o1 [Compound 5] | < 100 |
| Cc1ncc(COc2cc(F)cc(Oc3ccc(-n4nc(C(C)C)c5ncnc(N)c54)cc3)c2)cn1 [Compound 10] | < 100 |
| Cc1ncc(COc2cc(F)cc(Oc3ccc(-n4nc(C(C)C)c5ncnc(N)c54)cc3)c2)s1 [Compound 9] | < 100 |

test system: Splenocytes; experiment: Splenic Cell Proliferation Assay (anti-IgM stimulated B cell proliferation, Cell Titer-Glo); format: cell-based; conditions: Splenocyte; CD1 mouse splenocytes, 2.5 ug/ml anti-IgM F(ab')2, 72 h; read-out: EC50 (nM), Inhibition of splenic cell proliferation
Procedure: Splenic Cell Proliferation Assay
Splenocytes were obtained from 6 week old male CD1 mice (Charles River Laboratories Inc.). Mouse spleens were manually disrupted in PBS and filtered using a 70 um cell strainer followed by ammonium chloride red blood cell lysis. Cells were washed, resuspended in Splenocyte Medium (HyClone RPMI supplemented with 10% heat-inactivated FBS, 0.5× non-essential amino acids, 10 mM HEPES, 50 uM beta mercaptoethanol) and incubated at 37° C., 5% CO2 for 2 h to remove adherent cells. Suspension cells were seeded in 96 well plates at 50,000 cells per well and incubated at 37° C., 5% CO2 for 1 h. Splenocytes were pre-treated in triplicate with 10,000 nM curves of Formula 1 compounds for 1 h, followed by stimulation of B cell proliferation with 2.5 ug/ml anti-IgM F(ab′)2 (Jackson ImmunoResearch) for 72 h. Cell proliferation was measured by Cell Titer-Glo Luminescent Assay (Promega). EC50 values (50% proliferation in the presence of compound as compared to vehicle treated controls) were calculated from dose response compound curves using GraphPad Prism Software.

| Structure (SMILES) | EC50 [nM] |
| --- | --- |
| Cc1ccc(COc2cc(F)cc(Oc3ccc(-n4nc(C5CCCC5)c5ncnc(N)c54)cc3)c2)cn1 [Compound 6] | < 100 |
| Cc1ccc(COc2cc(F)cc(Oc3ccc(-n4nc(C5CCOCC5)c5ncnc(N)c54)cc3)c2)cn1 [Compound 14] | < 100 |
| Cc1ccc(COc2cc(F)cc(Oc3ccc(-n4nc(C(C)C)c5ncnc(N)c54)cc3)c2)cn1 [Compound 11] | < 100 |
| Cn1cncc1COc1cc(F)cc(Oc2ccc(-n3nc(C4CCOCC4)c4ncnc(N)c43)cc2)c1 [Compound 4] | < 100 |
| CC(C)c1nn(-c2ccc(Oc3cc(F)cc(OCc4ccccc4)c3)cc2)c2c(N)ncnc12 [Compound 12] | < 100 |
| Cc1ncc(COc2cc(F)cc(Oc3ccc(-n4nc(C5CCCC5)c5ncnc(N)c54)cc3)c2)cn1 [Compound 8] | < 100 |
| Cc1ncc(COc2cc(F)cc(Oc3ccc(-n4nc(C5CCCC5)c5ncnc(N)c54)cc3)c2)s1 [Compound 7] | < 100 |
| Nc1ncnc2c(C3CCOCC3)nn(-c3ccc(Oc4cc(F)cc(OCc5ccccc5)c4)cc3)c12 [Compound 13] | < 100 |
| Cc1ncc(COc2cccc(Oc3ccc(-n4nc(C5CCCC5)c5ncnc(N)c54)cc3)c2)s1 [Compound 2] | < 100 |
| Nc1ncnc2c(C3CCCC3)nn(-c3ccc(Oc4cccc(OCc5cncs5)c4)cc3)c12 [Compound 1] | < 100 |
| Cc1ncc(COc2cc(F)cc(Oc3ccc(-n4nc(C5CCOCC5)c5ncnc(N)c54)cc3)c2)s1 [Compound 3] | < 100 |
| Cc1ncc(COc2cc(F)cc(Oc3ccc(-n4nc(C5CCOCC5)c5ncnc(N)c54)cc3)c2)o1 [Compound 5] | < 100 |
| Cc1ncc(COc2cc(F)cc(Oc3ccc(-n4nc(C(C)C)c5ncnc(N)c54)cc3)c2)cn1 [Compound 10] | < 100 |
| Cc1ncc(COc2cc(F)cc(Oc3ccc(-n4nc(C(C)C)c5ncnc(N)c54)cc3)c2)s1 [Compound 9] | < 100 |

Reference: US9795608B2, “Protein kinase inhibitors” (PHARMASCIENCE, INC., priority 2012, dated 2017)
